One data set deals with T1, PTP1B (Homo sapiens, UniProt P18031).
T1 sequence (P18031 1-435): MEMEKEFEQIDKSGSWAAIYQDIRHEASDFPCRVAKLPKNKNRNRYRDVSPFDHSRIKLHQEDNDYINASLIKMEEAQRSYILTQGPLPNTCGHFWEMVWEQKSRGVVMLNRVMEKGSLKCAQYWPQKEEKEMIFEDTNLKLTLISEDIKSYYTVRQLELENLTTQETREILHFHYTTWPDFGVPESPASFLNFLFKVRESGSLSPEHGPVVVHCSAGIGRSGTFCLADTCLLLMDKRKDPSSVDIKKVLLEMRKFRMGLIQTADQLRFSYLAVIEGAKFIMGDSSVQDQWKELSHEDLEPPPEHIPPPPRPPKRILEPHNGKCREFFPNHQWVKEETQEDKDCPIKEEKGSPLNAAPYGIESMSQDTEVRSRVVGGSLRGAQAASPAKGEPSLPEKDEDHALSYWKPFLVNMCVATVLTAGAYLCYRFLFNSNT
Put plainly: PTP inhibitory activity assay, PTP1B. Format: biochemical. The following applies: in vitro; Na3VO4 positive control. The protocol: Thus, the isolated compounds (+)-1 and (−)-1 were tested for their PTP inhibitory activity against PTP1B, TCPTP, SHP1, and CD45.
PTP inhibitory activity of (+)-1 and (−)-1 against PTP1B, TCPTP, SHP1, and CD45 was tested in the same way as that described in the literature.

A further data set has as its target T2, TCPTP (Homo sapiens, UniProt P17706).
T2 sequence (P17706 1-415): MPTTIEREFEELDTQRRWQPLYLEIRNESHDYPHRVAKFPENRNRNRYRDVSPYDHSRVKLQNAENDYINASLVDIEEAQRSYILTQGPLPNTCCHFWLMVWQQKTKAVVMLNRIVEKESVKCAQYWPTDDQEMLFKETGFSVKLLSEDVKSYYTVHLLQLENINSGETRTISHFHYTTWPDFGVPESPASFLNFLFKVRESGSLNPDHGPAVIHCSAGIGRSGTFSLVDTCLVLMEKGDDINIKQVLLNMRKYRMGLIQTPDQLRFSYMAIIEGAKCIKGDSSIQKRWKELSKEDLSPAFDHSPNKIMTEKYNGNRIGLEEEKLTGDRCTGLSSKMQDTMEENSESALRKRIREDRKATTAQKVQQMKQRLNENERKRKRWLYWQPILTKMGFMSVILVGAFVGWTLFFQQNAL
Put plainly: PTP inhibitory activity assay, TCPTP. Type of data set: biochemical. The conditions noted are these: in vitro; Na3VO4 positive control. As to the method: (§1) Protein tyrosine phosphatases (PTPs), including PTP1B, T-cell PTP (TCPTP), Src homology-2 domain-containing PTP-1 (SHP1), and CD45 PTP (CD45), a family of enzymes that hydrolytically remove phosphate groups from proteins, have attracted much attention recently for drug discovery. […] Thus, the isolated compounds (+)-1 and (−)-1 were tested for their PTP inhibitory activity against PTP1B, TCPTP, SHP1, and CD45.
(§2) PTP inhibitory activity of (+)-1 and (−)-1 against PTP1B, TCPTP, SHP1, and CD45 was tested in the same way as that described in the literature. Na3VO4 was used as the positive control.

The target of another data set is T3, CD45 (Homo sapiens, UniProt P08575).
T3 sequence (P08575 26-1306): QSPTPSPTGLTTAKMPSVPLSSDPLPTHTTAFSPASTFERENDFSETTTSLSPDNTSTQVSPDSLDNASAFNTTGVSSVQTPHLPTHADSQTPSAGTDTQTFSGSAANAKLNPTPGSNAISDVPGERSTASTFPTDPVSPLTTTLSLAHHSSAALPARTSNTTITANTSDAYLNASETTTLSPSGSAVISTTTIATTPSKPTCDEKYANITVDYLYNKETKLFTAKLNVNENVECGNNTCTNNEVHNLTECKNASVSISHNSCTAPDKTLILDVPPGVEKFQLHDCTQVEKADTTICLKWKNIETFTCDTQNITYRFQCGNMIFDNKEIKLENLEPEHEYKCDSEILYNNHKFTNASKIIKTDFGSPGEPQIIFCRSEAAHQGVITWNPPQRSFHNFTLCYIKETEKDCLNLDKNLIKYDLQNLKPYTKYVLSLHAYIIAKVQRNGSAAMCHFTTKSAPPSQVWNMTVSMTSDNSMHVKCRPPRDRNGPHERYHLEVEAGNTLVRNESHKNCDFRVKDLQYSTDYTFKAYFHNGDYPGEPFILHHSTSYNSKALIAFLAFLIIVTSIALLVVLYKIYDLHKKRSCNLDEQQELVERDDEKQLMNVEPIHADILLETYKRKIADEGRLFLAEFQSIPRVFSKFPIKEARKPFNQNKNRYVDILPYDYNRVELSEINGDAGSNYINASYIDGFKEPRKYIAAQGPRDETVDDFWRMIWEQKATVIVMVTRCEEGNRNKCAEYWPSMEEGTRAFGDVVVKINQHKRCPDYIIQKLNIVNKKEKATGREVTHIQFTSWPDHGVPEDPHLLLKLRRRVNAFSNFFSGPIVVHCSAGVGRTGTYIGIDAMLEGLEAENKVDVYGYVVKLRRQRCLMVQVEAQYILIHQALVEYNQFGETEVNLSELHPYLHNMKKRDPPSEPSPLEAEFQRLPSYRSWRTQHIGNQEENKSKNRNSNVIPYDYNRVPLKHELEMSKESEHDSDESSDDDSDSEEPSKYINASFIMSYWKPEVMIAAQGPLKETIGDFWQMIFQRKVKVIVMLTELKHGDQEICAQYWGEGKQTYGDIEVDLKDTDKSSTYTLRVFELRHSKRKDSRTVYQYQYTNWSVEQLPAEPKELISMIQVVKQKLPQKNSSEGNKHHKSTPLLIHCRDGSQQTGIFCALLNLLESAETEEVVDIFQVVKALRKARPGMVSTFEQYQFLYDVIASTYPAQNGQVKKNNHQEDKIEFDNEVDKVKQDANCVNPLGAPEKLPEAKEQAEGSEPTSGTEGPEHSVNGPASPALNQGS
Put plainly: PTP inhibitory activity assay, CD45. Format: biochemical. As to the method: as §1, §2

On the set-up of data set [1]: method as in PMID 15771896. The following applies: at a concentration of 2.0 μg/μL; cited from earlier work.
On the set-up of data set [2]: method as in PMID 15771896. The following applies: at a concentration of 2.0 μg/μL; cited from earlier work. The source holds these as a separate data set.
Setting [3] is: in vitro, Na3VO4 positive control.

The values below come from paper PMC8708580, “Structure Revision and Protein Tyrosine Phosphatase Inhibitory Activity of Drazepinone” (Marine Drugs, 2021).

Where two headings read alike, the source gives them in different places.

In general, IC50 refers to the concentration that inhibits the measured activity by half. Turning to `CC1=CC2(C)Oc3c(-c4ccccc4)c[nH]c(=O)c3C2C1C` (single isomer, unassigned; (-)) [(−)-1], the IC50 against PTP1B is 5.32 µM; against TCPTP, 42.6 µM; on CD45 (setting [3]), above 85.2 µM.

As to `[Na+].[Na+].[Na+].[O]=[V]([O-])([O-])[O-]` [Na3VO4, reference compound], the “IC50 TCPTP” value on TCPTP stood at 3.13 µg/mL. In addition, the “IC50 CD45” value against CD45 (setting [3]) stood at 6.25 µg/mL.

With `CC1=CC2(C)Oc3c(-c4ccccc4)c[nH]c(=O)c3C2C1C` (single isomer, unassigned; (+)) [(+)-1], on PTP1B, the IC50 is above 85.2 µM and the “IC50 PTP1B” value is reported as “no activity”. For the same compound, on TCPTP, the IC50 was above 85.2 µM and the “IC50 TCPTP” value is “no activity”. Moreover, at CD45, the IC50 is above 85.2 µM. Also, the “IC50 CD45” value against CD45 (setting [3]) was “no activity”.

Regarding `CC1=CC(C)C2c3cc4ccccc4cc3OC2(C)NC1=O` (stereo not shown) [drazepinone, Drazepinone], the herbicidal properties entry in data set [1] is on record as “broad-spectrum herbicidal properties”. In addition, the zootoxic activity result in data set [2] is given as “low zootoxic activity”.
